Source: US10995101B2, “2-oxo-thiazole derivatives as A2A inhibitors and compounds for use in the treatment of cancers” (iTeos Therapeutics SA, priority 2017, dated 2021)

Tests used:
[1] = biological target: A2A receptor (Homo sapiens, UniProt P29274); assay: Inhibition of cAMP production in HEK cells; assay type: cell-based; details: HEK-293 cells with A2A receptor
[2] = in vitro; details: human, Caco-2, pH 7.4
[3] = IC50 (nM) (3 nM NECA as agonist, 0.1% BSA), 3 nM NECA as agonist, 0.1% BSA
[4] = IC50 (nM) (5 nM NECA as agonist, 2% HSA), 5 nM NECA as agonist, 2% HSA
[5] = IC50 (nM) (5 μM Adenosine as agonist, 2.0% HSA), 5 μM Adenosine as agonist, 2.0% HSA

Sequence of A2A receptor (P29274 whole entry): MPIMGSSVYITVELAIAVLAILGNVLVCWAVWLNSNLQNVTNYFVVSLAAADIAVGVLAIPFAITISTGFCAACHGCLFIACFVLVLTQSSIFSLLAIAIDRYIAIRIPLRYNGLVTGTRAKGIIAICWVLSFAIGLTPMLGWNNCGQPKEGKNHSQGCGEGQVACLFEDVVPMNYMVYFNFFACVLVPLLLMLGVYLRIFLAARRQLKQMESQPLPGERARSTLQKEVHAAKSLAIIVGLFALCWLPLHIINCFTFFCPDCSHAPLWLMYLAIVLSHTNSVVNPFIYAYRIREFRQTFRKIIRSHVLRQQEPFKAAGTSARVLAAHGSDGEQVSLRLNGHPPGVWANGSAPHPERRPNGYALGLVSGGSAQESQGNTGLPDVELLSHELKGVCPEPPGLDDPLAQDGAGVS

Cn1cnc(COc2cc(N3CCN(CCn4c(=O)sc5c4nc(N)n4nc(-c6ccco6)nc54)CC3)c(F)cc2F)n1 [Compound 68, 5-amino-3-(2-(4-(2,4-difluoro-5-((1-methyl-1H-1,2,4-triazol-3-yl)methoxy)phenyl)piperazin-1-yl)ethyl)-8-(furan-2-yl)thiazolo[5,4-e][1,2,4]triazolo[1,5-c]pyrimidin-2(3H)-one]
IC50 [1, 3]: 14 nM
IC50 [1, 4]: 123 nM
IC50 [1, 5]: 2700 nM
efflux ratio at 120 min, 2 μM [2]: 108

CN(CCNC(=O)c1ccc(N2CCN(CCn3c(=O)sc4c3nc(N)n3nc(-c5ccco5)nc43)CC2)c(F)c1)C1COC1 [Compound 69, 4-(4-(2-(5-amino-8-(furan-2-yl)-2-oxothiazolo[5,4-e][1,2,4]triazolo[1,5-c]pyrimidin-3(2H)-yl)ethyl)piperazin-1-yl)-3-fluoro-N-(2-(methyl(oxetan-3-yl)amino)ethyl)benzamide]
IC50 [1, 3]: 0.5 nM
IC50 [1, 4]: 5 nM
IC50 [1, 5]: 211 nM
efflux ratio at 120 min, 2 μM [2]: 201

Nc1nc2c(sc(=O)n2CCN2CCN(c3ccc(C(=O)NCCNCCO)cc3F)CC2)c2nc(-c3ccco3)nn12 [Compound 70, 4-(4-(2-(5-amino-8-(furan-2-yl)-2-oxothiazolo[5,4-e][1,2,4]triazolo[1,5-c]pyrimidin-3(2H)-yl)ethyl)piperazin-1-yl)-3-fluoro-N-(2-((2-hydroxyethyl)amino)ethyl)benzamide]
IC50 [1, 3]: 0.6 nM
IC50 [1, 4]: 3 nM
IC50 [1, 5]: 124 nM
efflux ratio at 120 min, 2 μM [2]: 53

NCC(=O)NCCOc1ccc(N2CCN(CCn3c(=O)sc4c3nc(N)n3nc(-c5ccco5)nc43)CC2)c(F)c1 [Compound 71, 2-amino-N-(2-(4-(4-(2-(5-amino-8-(furan-2-yl)-2-oxothiazolo[5,4-e][1,2,4]triazolo[1,5-c]pyrimidin-3(2H)-yl)ethyl)piperazin-1-yl)-3-fluorophenoxy)ethyl)acetamide]
IC50 [1, 3]: 0.4 nM
IC50 [1, 4]: 3 nM
IC50 [1, 5]: 79 nM
efflux ratio at 120 min, 2 μM [2]: 28

CC(C)[C@H](N)C(=O)NCCOc1ccc(N2CCN(CCn3c(=O)sc4c3nc(N)n3nc(-c5ccco5)nc43)CC2)c(F)c1 [Compound 72, (S)-2-amino-N-(2-(4-(4-(2-(5-amino-8-(furan-2-yl)-2-oxothiazolo[5,4-e][1,2,4]triazolo[1,5-c]pyrimidin-3(2H)-yl)ethyl)piperazin-1-yl)-3-fluorophenoxy)ethyl)-3-methylbutanamide]
IC50 [1, 3]: 1 nM
IC50 [1, 4]: 3 nM
IC50 [1, 5]: 86 nM
efflux ratio at 120 min, 2 μM [2]: 21

N#CCOc1cc(N2CCN(CCn3c(=O)sc4c3nc(N)n3nc(-c5ccco5)nc43)CC2)c(F)cc1F [Compound 74, 2-(5-(4-(2-(5-amino-8-(furan-2-yl)-2-oxothiazolo[5,4-e][1,2,4]triazolo[1,5-c]pyrimidin-3(2H)-yl)ethyl)piperazin-1-yl)-2,4-difluorophenoxy)acetonitrile]
IC50 [1, 3]: 1.2 nM
IC50 [1, 4]: 20 nM
IC50 [1, 5]: 495 nM
efflux ratio at 120 min, 2 μM [2]: 4

CS(=O)(=O)CCOc1cc(N2CCN(CCn3c(=O)sc4c3nc(N)n3nc(-c5ccco5)nc43)CC2)c(F)cc1F [Compound 77, 5-amino-3-(2-(4-(2,4-difluoro-5-(2-(methylsulfonyl)ethoxy)phenyl)piperazin-1-yl)ethyl)-8-(furan-2-yl)thiazolo[5,4-e][1,2,4]triazolo[1,5-c]pyrimidin-2(3H)-one]
IC50 [1, 3]: 0.5 nM
IC50 [1, 4]: 3 nM
IC50 [1, 5]: 158 nM
efflux ratio at 120 min, 2 μM [2]: 43

CS(=O)(=O)CCOc1ccc(N2CCN(CCn3c(=O)sc4c3nc(N)n3nc(-c5ccco5)nc43)CC2)c(F)c1 [Compound 78, 5-amino-3-(2-(4-(2-fluoro-4-(2-(methylsulfonyl)ethoxy)phenyl)piperazin-1-yl)ethyl)-8-(furan-2-yl)thiazolo[5,4-e][1,2,4]triazolo[1,5-c]pyrimidin-2(3H)-one]
IC50 [1, 3]: 0.6 nM
IC50 [1, 5]: 130 nM
efflux ratio at 120 min, 2 μM [2]: 45

Nc1nc2c(sc(=O)n2CCN2CCN(c3cc4c(cc3F)NC(=O)C4)CC2)c2nc(-c3ccco3)nn12 [Compound 79, 5-amino-3-(2-(4-(6-fluoro-2-oxoindolin-5-yl)piperazin-1-yl)ethyl)-8-(furan-2-yl)thiazolo[5,4-e][1,2,4]triazolo[1,5-c]pyrimidin-2(3H)-one]
IC50 [1, 3]: 0.3 nM
IC50 [1, 5]: 77 nM
efflux ratio at 120 min, 2 μM [2]: 47

CS(=N)(=O)c1ccc(N2CCN(CCn3c(=O)sc4c3nc(N)n3nc(-c5ccco5)nc43)CC2)c(F)c1 (stereo not shown) [Compound 80, 5-amino-3-(2-(4-(2-fluoro-4-(S-methylsulfonimidoyl)phenyl)piperazin-1-yl)ethyl)-8-(furan-2-yl)thiazolo[5,4-e][1,2,4]triazolo[1,5-c]pyrimidin-2(3H)-one]
IC50 [1, 3]: 0.4 nM
IC50 [1, 5]: 146 nM
efflux ratio at 120 min, 2 μM [2]: 149

Cc1cc(N2CCN(CCn3c(=O)sc4c3nc(N)n3nc(-c5ccco5)nc43)CC2)c(F)cn1 [Compound 82, 5-amino-3-(2-(4-(5-fluoro-2-methylpyridin-4-yl)piperazin-1-yl)ethyl)-8-(furan-2-yl)thiazolo[5,4-e][1,2,4]triazolo[1,5-c]pyrimidin-2(3H)-one]
IC50 [1, 3]: 0.2 nM
IC50 [1, 5]: 15 nM
efflux ratio at 120 min, 2 μM [2]: 3

Nc1nc2c(sc(=O)n2CCN2CCN(c3ccc(O[C@@H]4COC[C@H]4O)cc3F)CC2)c2nc(-c3ccco3)nn12 [Compound 83, 5-amino-3-(2-(4-(2-fluoro-4-(((3R,4R)-4-hydroxytetrahydrofuran-3-yl)oxy)phenyl)piperazin-1-yl)ethyl)-8-(furan-2-yl)thiazolo[5,4-e][1,2,4]triazolo[1,5-c]pyrimidin-2(3H)-one]
IC50 [1, 3]: 0.4 nM
IC50 [1, 5]: 212 nM
efflux ratio at 120 min, 2 μM [2]: 29

Nc1nc2c(sc(=O)n2CCN2CCN(c3ccc(O[C@H]4COC[C@@H]4O)cc3F)CC2)c2nc(-c3ccco3)nn12 [Compound 84, 5-amino-3-(2-(4-(2-fluoro-4-(((3S,4S)-4-hydroxytetrahydrofuran-3-yl)oxy)phenyl)piperazin-1-yl)ethyl)-8-(furan-2-yl)thiazolo[5,4-e][1,2,4]triazolo[1,5-c]pyrimidin-2(3H)-one]
IC50 [1, 3]: 0.1 nM
IC50 [1, 5]: 71 nM
efflux ratio at 120 min, 2 μM [2]: 24

CC(C)(O)COc1ccc(N2CCN(CCn3c(=O)sc4c3nc(N)n3nc(-c5ccco5)nc43)CC2)c(F)c1 [Compound 85, 5-amino-3-(2-(4-(2-fluoro-4-(2-hydroxy-2-methylpropoxy)phenyl)piperazin-1-yl)ethyl)-8-(furan-2-yl)thiazolo[5,4-e][1,2,4]triazolo[1,5-c]pyrimidin-2(3H)-one]
IC50 [1, 3]: 0.4 nM
IC50 [1, 5]: 220 nM
efflux ratio at 120 min, 2 μM [2]: 5

CC(C)(O)c1ccc(N2CCN(CCn3c(=O)sc4c3nc(N)n3nc(-c5ccco5)nc43)CC2)c(F)c1 [Compound 86, 5-amino-3-(2-(4-(2-fluoro-4-(2-hydroxypropan-2-yl)phenyl)piperazin-1-yl)ethyl)-8-(furan-2-yl)thiazolo[5,4-e][1,2,4]triazolo[1,5-c]pyrimidin-2(3H)-one]
IC50 [1, 3]: 0.6 nM
IC50 [1, 5]: 747 nM
efflux ratio at 120 min, 2 μM [2]: 5

Nc1nc2c(sc(=O)n2CCN2CCN(c3ccc(OCC(O)C(F)(F)F)cc3F)CC2)c2nc(-c3ccco3)nn12 (stereo not shown) [Compound 87, 5-amino-3-(2-(4-(2-fluoro-4-(3,3,3-trifluoro-2-hydroxypropoxy)phenyl)piperazin-1-yl)ethyl)-8-(furan-2-yl)thiazolo[5,4-e][1,2,4]triazolo[1,5-c]pyrimidin-2(3H)-one]
IC50 [1, 3]: 1.1 nM
IC50 [1, 5]: 432 nM
efflux ratio at 120 min, 2 μM [2]: 7

Nc1nc2c(sc(=O)n2CCN2CCN(c3cc(OCCO)ccc3F)CC2)c2nc(-c3ccco3)nn12 [Compound 88, 5-amino-3-(2-(4-(2-fluoro-5-(2-hydroxyethoxy)phenyl)piperazin-1-yl)ethyl)-8-(furan-2-yl)thiazolo[5,4-e][1,2,4]triazolo[1,5-c]pyrimidin-2(3H)-one]
IC50 [1, 3]: 0.2 nM
IC50 [1, 5]: 22 nM
efflux ratio at 120 min, 2 μM [2]: 19

Nc1nc2c(sc(=O)n2CCN2CCN(c3cc(OCC4CNCCO4)c(F)cc3F)CC2)c2nc(-c3ccco3)nn12 (stereo not shown) [Compound 89, 5-amino-3-(2-(4-(2,4-difluoro-5-(morpholin-2-ylmethoxy)phenyl)piperazin-1-yl)ethyl)-8-(furan-2-yl)thiazolo[5,4-e][1,2,4]triazolo[1,5-c]pyrimidin-2(3H)-one]
IC50 [1, 3]: 0.6 nM
IC50 [1, 5]: 9 nM
efflux ratio at 120 min, 2 μM [2]: 456

Nc1nc2c(sc(=O)n2CCN2CCN(c3cc(OCC4COCCN4)c(F)cc3F)CC2)c2nc(-c3ccco3)nn12 (stereo not shown) [Compound 90, 5-amino-3-(2-(4-(2,4-difluoro-5-(morpholin-3-ylmethoxy)phenyl)piperazin-1-yl)ethyl)-8-(furan-2-yl)thiazolo[5,4-e][1,2,4]triazolo[1,5-c]pyrimidin-2(3H)-one]
IC50 [1, 3]: 5.7 nM
IC50 [1, 5]: 24 nM
efflux ratio at 120 min, 2 μM [2]: 86

Nc1nc2c(sc(=O)n2CCN2CCN(c3cc(O[C@H]4CCNC4=O)c(F)cc3F)CC2)c2nc(-c3ccco3)nn12 [Compound 95, (S)-5-amino-3-(2-(4-(2,4-difluoro-5-((2-oxopyrrolidin-3-yl)oxy)phenyl)piperazin-1-yl)ethyl)-8-(furan-2-yl)thiazolo[5,4-e][1,2,4]triazolo[1,5-c]pyrimidin-2(3H)-one]
IC50 [1, 3]: 0.7 nM
IC50 [1, 5]: 37 nM
efflux ratio at 120 min, 2 μM [2]: 137

Nc1nc2c(sc(=O)n2CCN2CCN(c3cc(O[C@@H]4CCNC4=O)c(F)cc3F)CC2)c2nc(-c3ccco3)nn12 [Compound 96, (R)-5-amino-3-(2-(4-(2,4-difluoro-5-((2-oxopyrrolidin-3-yl)oxy)phenyl)piperazin-1-yl)ethyl)-8-(furan-2-yl)thiazolo[5,4-e][1,2,4]triazolo[1,5-c]pyrimidin-2(3H)-one]
IC50 [1, 3]: 0.4 nM
IC50 [1, 5]: 19 nM
efflux ratio at 120 min, 2 μM [2]: 118
